Laboratory results from publication PMC6257670 (2010).

System: biotinylated m012 (RNA, aptamer) GGCGAAUUCUUCCGUUAUUGGAGCCAAGUCGCC
Experiment: competitive ELAA, absorbance 405 nm
Settings: 150 mM NaCl, 5 mM MgCl2; 50 mM HEPES pH 7.4 (wash), 25 °C; biotinylated SPC (6 µM) displaced; immobilised aptamer

Compound: CCCCCCCCCCCCC/C=C/[C@@H](O)[C@@H](N)COP(=O)([O-])OCC[N+](C)(C)C
- binding: yes
